Measured values taken from article PMC12441861, “Next-Generation Lipid Prodrugs Orally Deliver Tenofovir via Enhanced Chylomicron Incorporation” (ACS Pharmacology & Translational Science, 2025).

Assays:
[1] = Cytotoxicity, ATP luminescence (Cell Titer Glow) assay; conditions: human
Procedure: To measure cytotoxicity, HeLa-derived TZM-bl cells , were treated with serial dilutions of each drug, and viability was assessed after 48 h. Two methods were used: an ATP luminescence assay, which measures cellular ATP levels as an indicator of metabolic activity (compounds 8a–d), and an MTT assay, which evaluates cell viability via mitochondrial enzymatic activity (compounds 15b, 21a, and 21b).
The TZM-bl cell line (BEI Resources, ARP-8129) was used to evaluate both cell viability and HIV pseudovirus infectivity reduction. Cytotoxicity in this cell line was measured via two methods. The first method, an ATP luminescence assay, was used for compounds 15a, 15b, 21a, and 21b as such: 6000 TZM-bl cells per well were seeded in a 96-well plate and incubated at 37 °C with 5% CO2 for 24 h. Compounds were prepared as serial dilutions (final concentrations of 1, 0.2, 0.04, 0.008, and 0.0016 μM) in complete DMEM with DEAE-Dextran at 40 μg/mL to mimic HIV infectivity conditions. Solutions were added to the cells and incubated for another 48 h. Viability was assessed using the Promega Cell Titer Glow (CTG) Assay (cat No. G9242) by adding a 50% PBS-CTG solution to each well and measuring luminescence, which correlates with ATP levels, on an Agilent BioTek Synergy HT reader. Cytotoxicity of compounds 8a–d was determined using a colorimetric assay based the conversion of MTT (3-(4,5-dimethylthiazol-2-yl)-2,5-diphenyltetrazolium bromide) to formazan as described previously. TZM-bl cells were plated into 96-well tissue culture plates 1 day prior to performing the MTT assay. A series of 10 3-fold dilutions of each compound was performed from a starting concentration of 10 mM and each dilution was tested for a reduction in cell viability according to the manufacturer’s instructions (CyQuant MTT Cell Viability Assay, ThermoFisher, V13154). Wells containing TZM-bl cells with media only were used as a control. Briefly, serial dilutions of each test compound were added to the plated TZM-bl cells. At 48 h, the media was removed and replaced with 100 mL of fresh culture medium. 10 mL of 12 mM MTT solution was added to each well and incubated at 37 °C for 4 h. 85 mL of supernatant was then removed from each well and replaced with 50 mL of DMSO. Following a 10 min incubation at 37 °C, the absorbance of each well was determined at 540 nm using a Biotek Synergy Neo2 multimode reader and Gen5 v3.02 software.

[2] = Metabolic stability in mouse liver microsomes; assay type: in vitro ADME; conditions: pH 7.4, read-out: Metabolic Stability MLM t1/2
Caco-2 cell-derived CMs = assay type: in vitro ADME, human; conditions: for increase in CM concentration compared to TXL / CM concentration relative to ω-unmodified BOG prodrug (21a vs 8a, 21b vs 8b): 20 h
Procedure: [formula] 1 Chylomicron (CM) Isolation and Drug Quantification Methods ^a a (1) Caco-2 cells were grown to confluence. (2) Lipid mix was added to media (final drug concentration of 10 μM), and cells were incubated for 4 h. (3) Cells were washed 3× with PBS. (4) Cells were incubated in fresh media overnight. (5) CM-containing media was collected. (6) Media was combined with a 1.20 g/mL NaCl solution in an ultracentrifugation tube, 500 μL H2O was carefully layered on top, and the mixture was centrifuged at 10,950 RCF for 3 h. (7) The CM-containing upper layer was carefully isolated with a fine-tip pipette. (8) Test drug was then extracted from the CM layer with 70% ACN and quantified using LC-MS/MS.
With the presence of CMs in isolated Caco-2 cell extracts confirmed and reproducibility validated across replicates and different drugs, we were eager to investigate drug incorporation during CM biogenesis in vitro. Accordingly, we added test compound (Figure ) to differentiated Caco-2 cells along with the lipid mix to a final test drug concentration of 10 μM. While 10 μM was selected as a standard concentration for these studies, higher concentrations could allow detection of other compounds with low CM association in future experiments. In either case, CMs secreted by Caco-2 cells can be isolated postincubation, and drug concentrations within CMs can be assessed using highly sensitive LC-MS/MS methodology. Positive (high c Log D) and negative (low c Log D) control compounds were selected to validate this assay. […] Given these properties, we expected CAB to readily package into CMs in vitro. […]. […] This sets the stage for quantitative comparisons of TXL and its functionalized analogs, which are detailed below.
At 14-days postconfluence, Caco-2 cells were incubated in a lipid mixture to induce secretion of CMs. For the lipid solution, oleic acid (50 mg), lecithin (40 mg), and sodium taurocholate (48 mg) were weighted out into an Eppendorf tube, and the volume was brought up to 900 μL with PBS, followed by vigorous vortexing to ensure sample homogeneity. This 100× lipid mixture was then diluted into growth media to achieve the desired concentrations (2 mM oleic acid, 1.36 mM lecithin, 1 mM sodium taurocholate) by adding 500 μL of the lipid mixture to 49.5 mL of media. The lipid-supplemented media was thoroughly mixed and sterilized by filtration using a 250 mL sterile vacuum filter. For the drug-exposed CM experiments, each test compound was dissolved in 2 mM human serum albumin (HAS, Sigma, essentially fatty acid free) in DPBS, then added to 10 mL aliquots of lipid-containing media to achieve a final concentration of 10 μM. Subsequently, lipid-containing media was added to Caco-2 cells and incubated for 4 h at 37 °C. After incubation, cells were washed twice with PBS then incubated for 4, 8, or 20 h at 37 °C in fresh, colorless growth medium. Media was collected into 15 mL falcon tubes and centrifuged at 2000g to remove cell debris. Postcentrifugation, the supernatant was transferred to 50 mL Nalgene Oak Ridge High-Speed PPCO Centrifuge Tubes. Next, to adjust the density for ultracentrifugation, 1.19 g of NaCl in 2 mL of deionized (DI) H2O were added to reach a final volume of 5 mL, corresponding to a density of 1.20 g/mL. This mixture was dissolved by vortexing and balanced by weight. 500 μL of DI H2O was carefully overlaid onto the mixture. Ultracentrifugation was performed for 2 h and 30 min at 10,920 relative centrifugal force (RCF). Immediately after centrifugation, the top 500 μL layer, containing CMs, was carefully collected using a gel-loading pipet tip.
To an aliquot of CM extract was added an equal volume of ACN into 1.5 mL Eppendorf tubes. Tubes were shaken for 1 h at rt then centrifuged at 15,000 RCF to remove debris. The clear supernatant was transferred to a glass vial and concentrated under reduced pressure to yield a dry solid. Sample was then reconstituted in 70% ACN in H2O, filtered and then analyzed. […]

[3] = Metabolic stability in human liver microsomes; assay type: in vitro ADME; conditions: pH 7.4, read-out: Metabolic Stability HLM t1/2
Procedure: Assays employed human liver microsomes (HLMs, 20 mg/mL) from Xenotech. A 10 mM NADPH stock was prepared in deionized H2O, and test compounds were dissolved in 100% MeOH to a final concentration of 10 mM. The stock solutions were diluted to 500 μM in 100 mM potassium phosphate buffer (pH 7.4), keeping the final MeOH concentration below 0.2%. Reaction mixtures were prepared by combining 928 μL phosphate buffer, 55 μL liver microsomes, and the test compound solution to a final concentration of 3 μM. Verapamil was used as a positive control. The reactions were initiated with the addition of 110 μL of 10 mM NADPH. Aliquots were taken in duplicate at 0, 5, 10, 15, and 30 min, quenched with 100 μL of cold MeOH containing 2 μM internal standard (d 5-7-ethoxy coumarin), and centrifuged at 12,000 RCF for 5 min. The supernatants were then transferred to LC-MS vials for analysis. The average of each duplicate was normalized to the 0 min time point, representing 100% remaining (0% metabolism).

| SMILES | CC50 at 48 h [1] [nM] | half-life at 3 µM [2] [min] | increase in CM concentration compared to TXL (Caco-2 cell-derived CMs; 10 μM) [fold] | half-life at 3 µM [3] [min] | detection of compound in CM extract by LC-MS/MS (Caco-2 cell-derived CMs; 10 μM test drug, Caco-2 cells) | concentration in CMs compared with BOG prodrugs (Caco-2 cell-derived CMs; 8 h, 10 μM) | CC50 at 48 h ([1]; TZM-bl cells) [nM] | CM concentration relative to ω-unmodified BOG prodrug (21a vs 8a, 21b vs 8b) (Caco-2 cell-derived CMs; 10 μM) |
| --- | --- | --- | --- | --- | --- | --- | --- | --- |
| C[C@H](Cn1cnc2c(N)ncnc21)OCP(=O)(O)OCCCOCCCCCCCCCCCCCCCC(F)(F)F [15a, Ammonium[(1R)-2-(6-aminopurin-9-yl)-1-methyl-ethoxy]methyl-[3-(16,16,16-trifluorohexadecoxy)propoxy]phosphinate] | > 1000 | > 120 | 2.4 | > 120 | – | – | – | – |
| CCCCCCCCCCCCCCCCOCCCOP(=O)(O)CO[C@H](C)Cn1cnc2c(N)ncnc21 [TXL, hexadecyloxypropyl (HDP)-TFV, reference compound] | > 1000 | > 120 | – | – | successfully detected in CM isolates | significantly greater concentrations in CMs than all BOG substituted prodrugs | – | – |
| C[C@H](Cn1cnc2c(N)ncnc21)OCP(=O)(O)OC[C@H](COCCCCCCCCCCCCCCCCCC(F)(F)F)OCc1ccccc1 [21b, Ammonium[(1R)-2-(6-aminopurin-9-yl)-1-methyl-ethoxy]methyl-[(2S)-2-benzyloxy-3-(18,18,18-trifluorooctadecoxy)propoxy]phosphinate] | – | > 120 | 3.8 | > 120 | – | – | > 1000 | ~1.6 fold |
| C[C@H](Cn1cnc2c(N)ncnc21)OCP(=O)(O)OC[C@H](COCCCCCCCCCCCCCCCC(F)(F)F)OCc1ccccc1 [21a, Ammonium[(1R)-2-(6-Aminopurin-9-yl)-1-methyl-ethoxy]methyl-[(2S)-2-benzyloxy-3-(16,16,16-trifluorohexadecoxy)propoxy]phosphinate] | – | > 120 | 3.3 | > 120 | – | – | > 1000 | approximately 1.8 fold |
